Results published in patent EP2570413A1, “Benzothiazinone derivatives as anti-tuberculosis agents” (The University Of Queensland, priority 2011, dated 2013).
Converted amounts (≈) assume the structure as drawn.

Tested on: M. smegmatis SG987
Assay: Agar diffusion assay
Type: cell-based, Mycobacterium smegmatis
Settings: Mycolicibacterium smegmatis
Experimental: Antimicrobial activity is additionally determined by agar diffusion tests according to: European Pharmacopoeia, 3rd edition, 1997; 13, 118, Deutscher Apotheker Verlag Stuttgart
100 µl suspension of the test organism M. smegmatis SG987 with a density of McFarland standard 0.5 are inoculated into 34 ml of sterile melted agar medium (Nutrient agar from Serva Electrophoresis GmbH, Heidelberg, Germany) and poured into Petri dishes. Wells of 9 mm in diameter are cut in the agar and filled with 50 µl of the compound solution (for concentrations see Table 2). Compounds are dissolved in DMSO in a concentration of 1 mg/ml and further diluted in methanol to the final concentration. Growth inhibition zones around the agar wells are read after overnight incubation at 37°C.

Compound | zone of inhibition at 1 µg/mL
C[C@H]1COC2(CCN(c3nc(=O)c4cc(C(F)(F)F)cc([N+](=O)[O-])c4s3)CC2)O1 [I (Ref.), reference compound] | 17 mm
O=c1nc(N2CCC(c3ccc(Cl)cc3)CC2)sc2c([N+](=O)[O-])cc(C(F)(F)F)cc12 [Compound 2] | 22 mm
Cc1ccc(C2CCN(c3nc(=O)c4cc(C(F)(F)F)cc([N+](=O)[O-])c4s3)CC2)cc1 [Compound 3] | < 22 mm
O=c1nc(N2CCC(c3ccc(F)c(F)c3)CC2)sc2c([N+](=O)[O-])cc(C(F)(F)F)cc12 [Compound 5] | 27 mm
O=c1nc(N2CCC(c3ccccc3F)CC2)sc2c([N+](=O)[O-])cc(C(F)(F)F)cc12 [Compound 8] | 27 mm
O=c1nc(N2CCC(c3cccc(F)c3)CC2)sc2c([N+](=O)[O-])cc(C(F)(F)F)cc12 [Compound 4] | 24 mm

Same assay, conditions: at 1 µg/ml

Compound | colonies in the inhibition zone
C[C@H]1COC2(CCN(c3nc(=O)c4cc(C(F)(F)F)cc([N+](=O)[O-])c4s3)CC2)O1 [I (Ref.), reference compound] | p-P

Tested on: M. smegmatis SG987
Assay: MIC assay, broth microdilution
Type: cell-based, Mycobacterium smegmatis
Settings: M. smeg. SG987
Source text: The protocol used is the broth microdilution method in microtiter plates (MTP), based upon that detailed by the CLSI (Clinical and Laboratory Standards Institute (CLSI). 2006. Methods for Dilution Antimicrobial Susceptibility Tests for Bacteria that Grow Aerobically; Approved Standard. 7th edn. Document M7-A6. Clinical and Laboratory Standards Institute, Wayne, PA.).
Strain: Mycobacterium smegmatis, ATCC 700084, or other Mycobacterium strains (see table below).
Medium: The bacteria culture and the MIC were done using the following medium: MHB - Mueller-Hinton Broth + 0.05% Tween80, purchased from Difco, Tween80 has been added to avoid clumping of the bacteria.
This highest concentration is filled in the first row of the microtiter plate and further diluted in the culture medium for the Mycobacteria (Mueller-Hinton Broth and Middlebrook 7H9 broth). All solutions are freshly prepared under sterile conditions.
Resazurin salt powder (Sigma) is prepared at 0.01 % (wt/vol) in distilled water, sterilized by filtration through a 0.22 µm membrane and stored at 4°C for a week.
Ciprofloxacin, isoniaz-d and rifampicin can be used as reference compounds for control of the assay as well as a solvent control. Minimal inhibitory concentrations (MIC) are determined by the broth microdilution method. 50 µl of the compound solution in DMSO/MeOH are serially diluted directly in the microtiter plate by factor two with Mueller-Hinton broth (MHB)(Difco). Then the wells are inoculated with 50 µl of test organisms in MHB to give a final concentration of 5x10^5 CFU/ml. After microtiter plates are incubated at 37°C for 48 h, the optical density of each well is measured with a Nepheloscan Ascent 1.4 automatic plate reader (Labsystems, Vantaa, Finland). Then 30 µl of resazurin solution is added to each well and plates are allowed to incubate at 37°C for additional 24 h. A change from blue to pink indicates reduction of resazurin and therefore bacterial growth. The MIC is defined as the lowest drug concentration that prevents this colour change.

Compound | MIC M. smeg. SG987
O=c1nc(N2CCC(c3ccc(Cl)cc3)CC2)sc2c([N+](=O)[O-])cc(C(F)(F)F)cc12 [Compound 2] | < 5 ng/mL

Same assay, conditions: Mycolicibacterium smegmatis, SG987; read-out: MIC M. smeg. SG987

Compound | MIC
C[C@H]1COC2(CCN(c3nc(=O)c4cc(C(F)(F)F)cc([N+](=O)[O-])c4s3)CC2)O1 [I (Ref.), reference compound] | < 5 ng/mL
O=c1nc(N2CCC(c3ccc(Cl)cc3)CC2)sc2c([N+](=O)[O-])cc(C(F)(F)F)cc12 [Compound 2] | < 5 ng/mL
Cc1ccc(C2CCN(c3nc(=O)c4cc(C(F)(F)F)cc([N+](=O)[O-])c4s3)CC2)cc1 [Compound 3] | < 5 ng/mL
O=c1nc(N2CCC(c3ccc(F)c(F)c3)CC2)sc2c([N+](=O)[O-])cc(C(F)(F)F)cc12 [Compound 5] | < 5 ng/mL
O=c1nc(N2CCC(c3ccccc3F)CC2)sc2c([N+](=O)[O-])cc(C(F)(F)F)cc12 [Compound 8] | < 5 ng/mL
O=c1nc(N2CCC(c3cccc(F)c3)CC2)sc2c([N+](=O)[O-])cc(C(F)(F)F)cc12 [Compound 4] | < 5 ng/mL

Tested on: not listed separately
Assay: Metabolic stability, human
Type: in vitro ADME
Settings: Human; test compound 1 µM in NADP (1.3 mM), G6P 3.3 mM, G6PDHase, DMSO

Compound | Metabolic Stability Human
O=c1nc(N2CCC(c3ccc(Cl)cc3)CC2)sc2c([N+](=O)[O-])cc(C(F)(F)F)cc12 [Compound 2] | 59%
Cc1ccc(C2CCN(c3nc(=O)c4cc(C(F)(F)F)cc([N+](=O)[O-])c4s3)CC2)cc1 [Compound 3] | 30%
O=c1nc(N2CCC(c3ccc(F)c(F)c3)CC2)sc2c([N+](=O)[O-])cc(C(F)(F)F)cc12 [Compound 5] | 49%
O=c1nc(N2CCC(c3ccccc3F)CC2)sc2c([N+](=O)[O-])cc(C(F)(F)F)cc12 [Compound 8] | 69%
O=c1nc(N2CCC(c3cccc(F)c3)CC2)sc2c([N+](=O)[O-])cc(C(F)(F)F)cc12 [Compound 4] | 28%

Same assay, conditions: human, 1 µM

Compound | Metabolic Stability Human
C[C@H]1COC2(CCN(c3nc(=O)c4cc(C(F)(F)F)cc([N+](=O)[O-])c4s3)CC2)O1 [I (Ref.), reference compound] | 107%

Tested on: not listed separately
Assay: Plasma stability, human
Type: in vitro ADME
Settings: Human; test compound 5 µM in plasma

Compound | Plasma Stability Human
O=c1nc(N2CCC(c3ccc(Cl)cc3)CC2)sc2c([N+](=O)[O-])cc(C(F)(F)F)cc12 [Compound 2] | 86%
Cc1ccc(C2CCN(c3nc(=O)c4cc(C(F)(F)F)cc([N+](=O)[O-])c4s3)CC2)cc1 [Compound 3] | 98%
O=c1nc(N2CCC(c3ccc(F)c(F)c3)CC2)sc2c([N+](=O)[O-])cc(C(F)(F)F)cc12 [Compound 5] | 124%
O=c1nc(N2CCC(c3ccccc3F)CC2)sc2c([N+](=O)[O-])cc(C(F)(F)F)cc12 [Compound 8] | 107%
O=c1nc(N2CCC(c3cccc(F)c3)CC2)sc2c([N+](=O)[O-])cc(C(F)(F)F)cc12 [Compound 4] | 99%

Same assay, conditions: human, 5 µM

Compound | Plasma Stability Human
C[C@H]1COC2(CCN(c3nc(=O)c4cc(C(F)(F)F)cc([N+](=O)[O-])c4s3)CC2)O1 [I (Ref.), reference compound] | 98%

Tested on: M. vaccae 10670
Assay: MIC assay, broth microdilution
Type: cell-based
Settings: M. vaccae 10670

Compound | MIC M. vaccae 10670
O=c1nc(N2CCC(c3ccc(Cl)cc3)CC2)sc2c([N+](=O)[O-])cc(C(F)(F)F)cc12 [Compound 2] | < 0.0012 ng/mL

Same assay, conditions: Mycolicibacterium vaccae, 10670

Compound | MIC
C[C@H]1COC2(CCN(c3nc(=O)c4cc(C(F)(F)F)cc([N+](=O)[O-])c4s3)CC2)O1 [I (Ref.), reference compound] | 0.625 ng/mL (≈ 1.45 nM)
O=c1nc(N2CCC(c3ccc(Cl)cc3)CC2)sc2c([N+](=O)[O-])cc(C(F)(F)F)cc12 [Compound 2] | < 0.0012 ng/mL
Cc1ccc(C2CCN(c3nc(=O)c4cc(C(F)(F)F)cc([N+](=O)[O-])c4s3)CC2)cc1 [Compound 3] | < 0.0012 ng/mL
O=c1nc(N2CCC(c3ccc(F)c(F)c3)CC2)sc2c([N+](=O)[O-])cc(C(F)(F)F)cc12 [Compound 5] | < 0.0012 ng/mL
O=c1nc(N2CCC(c3ccccc3F)CC2)sc2c([N+](=O)[O-])cc(C(F)(F)F)cc12 [Compound 8] | < 0.0012 ng/mL
O=c1nc(N2CCC(c3cccc(F)c3)CC2)sc2c([N+](=O)[O-])cc(C(F)(F)F)cc12 [Compound 4] | < 0.0012 ng/mL

Tested on: not listed separately
Assay: Metabolic stability, mouse
Type: in vitro ADME
Settings: Mouse; test compound 1 µM in NADP (1.3 mM), G6P 3.3 mM, G6PDHase, DMSO

Compound | Metabolic Stability Mouse
O=c1nc(N2CCC(c3ccc(Cl)cc3)CC2)sc2c([N+](=O)[O-])cc(C(F)(F)F)cc12 [Compound 2] | 39%
Cc1ccc(C2CCN(c3nc(=O)c4cc(C(F)(F)F)cc([N+](=O)[O-])c4s3)CC2)cc1 [Compound 3] | 9%
O=c1nc(N2CCC(c3ccc(F)c(F)c3)CC2)sc2c([N+](=O)[O-])cc(C(F)(F)F)cc12 [Compound 5] | 28%
O=c1nc(N2CCC(c3ccccc3F)CC2)sc2c([N+](=O)[O-])cc(C(F)(F)F)cc12 [Compound 8] | 78%
O=c1nc(N2CCC(c3cccc(F)c3)CC2)sc2c([N+](=O)[O-])cc(C(F)(F)F)cc12 [Compound 4] | 10%

Same assay, conditions: mouse, 1 µM

Compound | Metabolic Stability Mouse
C[C@H]1COC2(CCN(c3nc(=O)c4cc(C(F)(F)F)cc([N+](=O)[O-])c4s3)CC2)O1 [I (Ref.), reference compound] | 97%

Tested on: not listed separately
Assay: Plasma stability, mouse
Type: in vitro ADME
Settings: Mouse; test compound 5 µM in plasma

Compound | Plasma Stability Mouse
O=c1nc(N2CCC(c3ccc(Cl)cc3)CC2)sc2c([N+](=O)[O-])cc(C(F)(F)F)cc12 [Compound 2] | 88%
Cc1ccc(C2CCN(c3nc(=O)c4cc(C(F)(F)F)cc([N+](=O)[O-])c4s3)CC2)cc1 [Compound 3] | 108%
O=c1nc(N2CCC(c3ccc(F)c(F)c3)CC2)sc2c([N+](=O)[O-])cc(C(F)(F)F)cc12 [Compound 5] | 111%
O=c1nc(N2CCC(c3ccccc3F)CC2)sc2c([N+](=O)[O-])cc(C(F)(F)F)cc12 [Compound 8] | 105%
O=c1nc(N2CCC(c3cccc(F)c3)CC2)sc2c([N+](=O)[O-])cc(C(F)(F)F)cc12 [Compound 4] | 107%

Same assay, conditions: mouse, 5 µM

Compound | Plasma Stability Mouse
C[C@H]1COC2(CCN(c3nc(=O)c4cc(C(F)(F)F)cc([N+](=O)[O-])c4s3)CC2)O1 [I (Ref.), reference compound] | 45%

Tested on: M. aurum
Assay: MIC assay, broth microdilution
Type: cell-based
Settings: Mycolicibacterium aurum

Compound | MIC
C[C@H]1COC2(CCN(c3nc(=O)c4cc(C(F)(F)F)cc([N+](=O)[O-])c4s3)CC2)O1 [I (Ref.), reference compound] | > 100 µg/mL

Tested on: not listed separately
Assay: Chemical stability in NaCl/HCl/pepsin
Type: physicochemical
Settings: 5 µM

Compound | Chemical Stability
C[C@H]1COC2(CCN(c3nc(=O)c4cc(C(F)(F)F)cc([N+](=O)[O-])c4s3)CC2)O1 [I (Ref.), reference compound] | 98%

Same assay, conditions: Test compound 5 µM in 35mM NaCl, 85 mM HCl, appr. 2000 U pepsin

Compound | Chemical Stability
O=c1nc(N2CCC(c3ccc(Cl)cc3)CC2)sc2c([N+](=O)[O-])cc(C(F)(F)F)cc12 [Compound 2] | 52%
Cc1ccc(C2CCN(c3nc(=O)c4cc(C(F)(F)F)cc([N+](=O)[O-])c4s3)CC2)cc1 [Compound 3] | 54%
O=c1nc(N2CCC(c3ccc(F)c(F)c3)CC2)sc2c([N+](=O)[O-])cc(C(F)(F)F)cc12 [Compound 5] | 63%
O=c1nc(N2CCC(c3ccccc3F)CC2)sc2c([N+](=O)[O-])cc(C(F)(F)F)cc12 [Compound 8] | 61%
O=c1nc(N2CCC(c3cccc(F)c3)CC2)sc2c([N+](=O)[O-])cc(C(F)(F)F)cc12 [Compound 4] | 71%

Tested on: M fort.
Assay: MIC assay, broth microdilution
Type: cell-based
Settings: not given

Compound | MIC
C[C@H]1COC2(CCN(c3nc(=O)c4cc(C(F)(F)F)cc([N+](=O)[O-])c4s3)CC2)O1 [I (Ref.), reference compound] | 1.56 ng/mL (≈ 3.62 nM)

Tested on: MDR M. tuberculosis
Assay: MIC assay, broth microdilution
Type: cell-based
Settings: M. 1b.; MDR M. tuberculosis

Compound | MIC M. 1b.
O=c1nc(N2CCC(c3ccc(Cl)cc3)CC2)sc2c([N+](=O)[O-])cc(C(F)(F)F)cc12 [Compound 2] | 4 ng/mL (≈ 8.51 nM)

Same assay, conditions: Mycobacterium tuberculosis, read-out: MIC M. 1b.

Compound | MIC
C[C@H]1COC2(CCN(c3nc(=O)c4cc(C(F)(F)F)cc([N+](=O)[O-])c4s3)CC2)O1 [I (Ref.), reference compound] | < 15 ng/mL
O=c1nc(N2CCC(c3ccc(Cl)cc3)CC2)sc2c([N+](=O)[O-])cc(C(F)(F)F)cc12 [Compound 2] | 4 ng/mL (≈ 8.51 nM)
Cc1ccc(C2CCN(c3nc(=O)c4cc(C(F)(F)F)cc([N+](=O)[O-])c4s3)CC2)cc1 [Compound 3] | 8 ng/mL (≈ 17.8 nM)
O=c1nc(N2CCC(c3ccc(F)c(F)c3)CC2)sc2c([N+](=O)[O-])cc(C(F)(F)F)cc12 [Compound 5] | 8 ng/mL (≈ 17 nM)
O=c1nc(N2CCC(c3ccccc3F)CC2)sc2c([N+](=O)[O-])cc(C(F)(F)F)cc12 [Compound 8] | 8 ng/mL (≈ 17.6 nM)
O=c1nc(N2CCC(c3cccc(F)c3)CC2)sc2c([N+](=O)[O-])cc(C(F)(F)F)cc12 [Compound 4] | 16 ng/mL (≈ 35.3 nM)
